In publication PMC11881035, “^68Ga-Labeled Glycopeptides as Effective Tools for Liver Function Imaging” (Molecular Pharmaceutics, 2025):
Read-outs that look alike come from different tables or passages of the source. Where a SMILES comes first, the peptide text is derived from it. The star is where a group is joined. X1 = O=C(CCCCc1cn([C@@H]2O[C@H](CO)[C@H](O)[C@H](O)[C@H]2O)nn1)*; NODAGA = O=C(O)CN1CCN(CC(=O)O)CCN(C(CCC(=O)*)C(=O)O)CC1; GABA = NCCCC(=O)O

Assays:
[1] = complex stability in human blood serum; assay type: in vitro ADME
Method: (§1) The ^68Ge/^68Ga generator, devices for analytical HPLC, semipreparative HPLC, mass spectrometry, radio-thin layer chromatography, gamma counter and animal models for biodistribution and imaging studies including the image reconstruction procedures were the same as described before.[22] Stability assays in PBS and human blood serum, protein binding as well as determination of log D values followed established protocols.[25] Binding affinities (IC50) of selected ligands were determined in an isolated receptor-based assay according to a previously published procedure with minor modifications.[22] Dilutions of nonradioactive complexes were made with PBS + 0.1% BSA (10^–5–10^–12 M). Preparation of [^125I]I-Asialoorosomucoid which serves as the radioactive standard ligand has been published recently.[21]

complex stability in PBS = assay type: physicochemical
Method: as §1

[2] = protein binding in human serum; assay type: in vitro ADME; details: for fraction unbound: human, serum, read-out: protein binding (%) (converted)
Method: as §1

log D determination = assay type: physicochemical; details: read-out: log D
Method: as §1

[3] = biodistribution in healthy BALB/c mice; details: mouse, in vivo; for tissue uptake at 10 min: 10 min p.i.; for tissue uptake at 0.5 h: 30 min p.i.; for tissue uptake at 1 h: 60 min p.i.
Method: as §1
Animal experiments were performed in accordance with the Austrian animal experiments law (BGBl. I Nr. 114/2012) and the institution’s animal welfare standards as approved by the Austrian Federal Ministry of Education, Science and Research (BMBWF, 2022–0.311.708). Imaging experiments were conducted at Werner Siemens Imaging Center (Tübingen, Germany) according to the German animal welfare act as approved by the local authorities (R5/19 G, R09/21 G).
Figure 2 Biodistribution data (% ID/g) of ^68Ga-labeled NODAGA-GalNAc-NonaLysan, NODAGA-NonaLysan, NODAGA-HexaLysan, and NODAGA-TriLysan in healthy BALB/c mice at 10, 30, and 60 min p.i. (100 pmol, 1 MBq).

ASGR = molecular target: T1, ASGR (Mus musculus, UniProt P24721+P34927); test: blocking experiment, coinjection of N-acetylgalactosamine, biodistribution in BALB/c mice; details: in vivo, 30 min p.i., 27.7 μmol N-acetylgalactosamine
T1 construct: from tissue; host or cells: liver and other organs of living healthy female BALB/c mice
T1 sequence (P34927 1-284): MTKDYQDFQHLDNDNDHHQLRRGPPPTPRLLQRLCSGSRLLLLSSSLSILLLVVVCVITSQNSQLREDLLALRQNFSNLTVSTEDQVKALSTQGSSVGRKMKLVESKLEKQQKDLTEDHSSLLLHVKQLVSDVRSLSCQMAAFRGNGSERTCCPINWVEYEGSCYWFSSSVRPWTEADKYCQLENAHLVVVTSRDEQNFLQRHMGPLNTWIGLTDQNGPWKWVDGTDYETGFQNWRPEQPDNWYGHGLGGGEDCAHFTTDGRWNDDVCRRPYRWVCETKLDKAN
T1 sequence (P24721 1-301): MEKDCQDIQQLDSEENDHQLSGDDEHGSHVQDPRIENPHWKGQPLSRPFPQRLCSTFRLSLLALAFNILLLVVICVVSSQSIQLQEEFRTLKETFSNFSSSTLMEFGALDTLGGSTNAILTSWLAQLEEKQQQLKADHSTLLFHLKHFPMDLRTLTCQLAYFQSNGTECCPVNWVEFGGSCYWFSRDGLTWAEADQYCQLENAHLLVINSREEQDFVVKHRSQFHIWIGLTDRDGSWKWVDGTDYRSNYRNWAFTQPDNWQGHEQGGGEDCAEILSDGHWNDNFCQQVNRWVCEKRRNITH
Method: Less liver uptake was found for [^68Ga]Ga-NODAGA-HexaLysan (55.5 ± 7.4% ID/g, 30 min p.i.) and least for [^68Ga]Ga-NODAGA-TriLysan (9.4 ± 2.0% ID/g, 30 min p.i.). […] However, an increasing activity accumulation in the intestine was found for [^68Ga]Ga-NODAGA-NonaLysan, [^68Ga]Ga-NODAGA-GalNAc-Nonalysan, and [^68Ga]Ga-NODAGA-HexaLysan over time. Nevertheless, liver-to-organ ratios were highest for [^68Ga]Ga-NODAGA-NonaLysan (Figure 3). Lower liver-to-organ ratios were found for the GalNAc derivative due to higher off-target binding in the pancreas, stomach, heart, muscle, lung, and femur. […] Coinjection of both nonamers with a large excess of N-acetylgalactosamine led to a statistically significant reduction of liver uptake indicating specific interactions of the tracers with their target (Figure 4). As a consequence of the reduced liver uptake also a reduction of the intestinal uptake was observed.
Figure 4 Data (% ID/g) from the blocking experiments using ^68Ga-labeled NODAGA-GalNAc-NonaLysan and NODAGA-NonaLysan in healthy BALB/c mice at 30 min p.i. Blocking was carried out using 27.7 μmol of N-acetylgalactosamine (**p ≤ 0.01; *p ≤ 0.05).

## NC(=O)CNC(=O)CNC(=O)[C@H](CCCCNC(=O)CCCCc1cn([C@@H]2O[C@H](CO)[C@H](O)[C@H](O)[C@H]2O)nn1)NC(=O)CNC(=O)CNC(=O)[C@H](CCCCNC(=O)CCCCc1cn([C@@H]2O[C@H](CO)[C@H](O)[C@H](O)[C@H]2O)nn1)NC(=O)CNC(=O)CNC(=O)[C@H](CCCCNC(=O)CCCCc1cn([C@@H]2O[C@H](CO)[C@H](O)[C@H](O)[C@H]2O)nn1)NC(=O)CNC(=O)CNC(=O)[C@H](CCCCNC(=O)CCCCc1cn([C@@H]2O[C@H](CO)[C@H](O)[C@H](O)[C@H]2O)nn1)NC(=O)CNC(=O)CNC(=O)[C@H](CCCCNC(=O)CCCCc1cn([C@@H]2O[C@H](CO)[C@H](O)[C@H](O)[C@H]2O)nn1)NC(=O)CNC(=O)CNC(=O)[C@H](CCCCNC(=O)CCCCc1cn([C@@H]2O[C@H](CO)[C@H](O)[C@H](O)[C@H]2O)nn1)NC(=O)CNC(=O)CNC(=O)[C@H](CCCCNC(=O)CCCCc1cn([C@@H]2O[C@H](CO)[C@H](O)[C@H](O)[C@H]2O)nn1)NC(=O)CNC(=O)CNC(=O)[C@H](CCCCNC(=O)CCCCc1cn([C@@H]2O[C@H](CO)[C@H](O)[C@H](O)[C@H]2O)nn1)NC(=O)CNC(=O)CNC(=O)[C@H](CCCCNC(=O)CCCCc1cn([C@@H]2O[C@H](CO)[C@H](O)[C@H](O)[C@H]2O)nn1)NC(=O)CCCNC(=O)CCC(C(=O)O)N1CCN(CC(=O)O)CCN(CC(=O)O)CC1 (stereo partly shown) [[^68Ga]Ga-NODAGA-NonaLysan, metal not drawn] ({NODAGA-GABA}-K(X1)GGK(X1)GGK(X1)GGK(X1)GGK(X1)GGK(X1)GGK(X1)GGK(X1)GGK(X1)GG-NH2)
[1]; 2 min
  complex stability in serum (% intact ligand): 99.5 ± 0.1%
[1]; 30 min
  complex stability in serum (% intact ligand): 99.5 ± 0.1%
[1]; 60 min
  complex stability in serum (% intact ligand): 99.5 ± 0.1%
[1]; 120 min
  complex stability in serum (% intact ligand): 99.6%
Complex stability in PBS; 2 min
  complex stability in PBS (% intact ligand): 99.6%
Complex stability in PBS; 30 min
  complex stability in PBS (% intact ligand): 99.4%
Complex stability in PBS; 60 min
  complex stability in PBS (% intact ligand): 99.3%
Complex stability in PBS; 120 min
  complex stability in PBS (% intact ligand): 99.3%
[2]; 120 min
  protein binding (%): 21.5 ± 3.4%
  fraction unbound: 0.813
[2]; 2 min
  fraction unbound: 0.847
[2]; 30 min
  fraction unbound: 0.717
[2]; 60 min
  fraction unbound: 0.737
Log D determination
  logD: -4.06
[3]; read-out: Blood uptake
  tissue uptake at 10 min: 0.4 ± 0.03 %ID/g
  tissue uptake at 0.5 h: 0.2 ± 0.04 %ID/g
  tissue uptake at 1 h: 0.2 ± 0.1 %ID/g
[3]; read-out: Femur uptake
  tissue uptake at 10 min: 0.3 ± 0.02 %ID/g
  tissue uptake at 0.5 h: 0.3 ± 0.1 %ID/g
  tissue uptake at 1 h: 0.2 ± 0.01 %ID/g
[3]; read-out: Heart uptake
  tissue uptake at 10 min: 0.4 ± 0.04 %ID/g
  tissue uptake at 0.5 h: 0.4 ± 0.04 %ID/g
  tissue uptake at 1 h: 0.5 ± 0.1 %ID/g
[3]; read-out: Intestine uptake
  tissue uptake at 10 min: 0.8 ± 0.2 %ID/g
  tissue uptake at 0.5 h: 5.6 ± 0.2 %ID/g
  tissue uptake at 1 h: 7.9 ± 0.5 %ID/g
[3]; read-out: Kidneys uptake
  tissue uptake at 10 min: 1.2 ± 0.1 %ID/g
  tissue uptake at 0.5 h: 0.8 ± 0.03 %ID/g
  tissue uptake at 1 h: 1 ± 0.2 %ID/g
[3]; read-out: Liver uptake
  tissue uptake at 10 min: 71.2 ± 0.4 %ID/g
  tissue uptake at 0.5 h: 79.6 ± 8 %ID/g
  tissue uptake at 1 h: 69.6 ± 1 %ID/g
[3]; read-out: Lung uptake
  tissue uptake at 10 min: 0.9 ± 0.1 %ID/g
  tissue uptake at 0.5 h: 0.7 ± 0.1 %ID/g
  tissue uptake at 1 h: 0.9 ± 0.1 %ID/g
[3]; read-out: Muscle uptake
  tissue uptake at 10 min: 0.6 ± 0.1 %ID/g
  tissue uptake at 0.5 h: 0.7 ± 0.03 %ID/g
  tissue uptake at 1 h: 0.6 ± 0.1 %ID/g
[3]; read-out: Pancreas uptake
  tissue uptake at 10 min: 0.8 ± 0.1 %ID/g
  tissue uptake at 0.5 h: 0.9 ± 0.1 %ID/g
  tissue uptake at 1 h: 1.2 ± 0.2 %ID/g
[3]; read-out: Spleen uptake
  tissue uptake at 10 min: 0.6 ± 0.2 %ID/g
  tissue uptake at 0.5 h: 0.2 ± 0.03 %ID/g
  tissue uptake at 1 h: 0.5 ± 0.03 %ID/g
[3]; read-out: Stomach uptake
  tissue uptake at 10 min: 0.7 ± 0.2 %ID/g
  tissue uptake at 0.5 h: 1.2 ± 0.4 %ID/g
  tissue uptake at 1 h: 1.8 ± 1 %ID/g
ASGR; read-out: Blood uptake
  tissue uptake at 0.5 h: 0.3 ± 0.2 %ID/g
ASGR; read-out: Femur uptake
  tissue uptake at 0.5 h: 0.2 ± 0.01 %ID/g
ASGR; read-out: Heart uptake
  tissue uptake at 0.5 h: 0.3 ± 0.03 %ID/g
ASGR; read-out: Intestine uptake
  tissue uptake at 0.5 h: 2.2 ± 0.2 %ID/g
ASGR; read-out: Kidneys uptake
  tissue uptake at 0.5 h: 2 ± 0.8 %ID/g
ASGR; read-out: Liver uptake
  tissue uptake at 0.5 h: 48 ± 1.1 %ID/g
ASGR; read-out: Lung uptake
  tissue uptake at 0.5 h: 0.6 ± 0.1 %ID/g
ASGR; read-out: Muscle uptake
  tissue uptake at 0.5 h: 0.4 ± 0.04 %ID/g
ASGR; read-out: Pancreas uptake
  tissue uptake at 0.5 h: 0.5 ± 0.1 %ID/g
ASGR; read-out: Spleen uptake
  tissue uptake at 0.5 h: 0.3 ± 0.2 %ID/g
ASGR; read-out: Stomach uptake
  tissue uptake at 0.5 h: 0.9 ± 0.3 %ID/g
